Source: US20230365546A1, “5-SUBSTITUTED INDOLE 3-AMIDE DERIVATIVES, PREPARATION METHOD AND USE THEREOF” (ORIGIANT PHARMACEUTICAL CO., LTD, priority 2020, published 2023)
pEC50, pIC50: −log10 of the molar value.

Key:
[1] = biological target: RIPK1 (Homo sapiens (Human), UniProt Q13546); assay: In vitro kinase assay (Eurofins Kinase Profiler), IC50; assay type: biochemical; conditions: 0.001-10 μM, read-out: RIPK 1 (IC50)
[2] = system: HT-29 cells; assay: Protection against programmed necrosis of HT-29 cells (TNF α/Smac mimetic/Z-VAD-FMK, CCK8); assay type: cell-based; conditions: Homo sapiens, TNF α/Smac mimetic/Z-VAD-FMK induced 24 h, CCK8, read-out: HT-29 (EC50)
Experimental: In vitro protection against programmed necrosis of HT-29 cells was conducted by ourselves.
DMEM medium was purchased from Gibco Inc., penicillin and streptomycin were purchased from HyClone Inc., TNF α was purchased from PeproTech Inc., Smac mimetic and Z-VAD-FMK were purchased from Selleck Inc., CCK8 was purchased from Medchem Express Inc.
HT-29 cells (colon cancer cells) were cultured in DMEM+10% FBS+Penicillin/Streptomycin medium. During the experiments, HT-29 cells in logarithmic growth phase were harvested, seeded in a 96-well plate at specific numbers per well (typically 8×10^3 cells/well of adherent cells) and cultured overnight in a 37° C., 5% CO2 cell culture incubator. The next day, the compounds to be tested were diluted with culture medium to the corresponding concentrations and added into the corresponding wells of a 96-well plate, with 3 replicate wells for each sample, and a Vehicle control group and a blank Control group containing only culture medium were set at the same time. […] The absorbance was measured at 495 nm wavelength using a microplate reader, and the protection rate of the drug on the cells necrosis was calculated according to the following formula:
Protection rate of cell necrosis=[(X−C0)/(C−C0)]×100%
Wherein, C, C0, and X represent the mean absorbance values of the Vehicle control group, Blank control group and Drug treatment group, respectively.

Sequence of RIPK1 (Q13546 whole entry): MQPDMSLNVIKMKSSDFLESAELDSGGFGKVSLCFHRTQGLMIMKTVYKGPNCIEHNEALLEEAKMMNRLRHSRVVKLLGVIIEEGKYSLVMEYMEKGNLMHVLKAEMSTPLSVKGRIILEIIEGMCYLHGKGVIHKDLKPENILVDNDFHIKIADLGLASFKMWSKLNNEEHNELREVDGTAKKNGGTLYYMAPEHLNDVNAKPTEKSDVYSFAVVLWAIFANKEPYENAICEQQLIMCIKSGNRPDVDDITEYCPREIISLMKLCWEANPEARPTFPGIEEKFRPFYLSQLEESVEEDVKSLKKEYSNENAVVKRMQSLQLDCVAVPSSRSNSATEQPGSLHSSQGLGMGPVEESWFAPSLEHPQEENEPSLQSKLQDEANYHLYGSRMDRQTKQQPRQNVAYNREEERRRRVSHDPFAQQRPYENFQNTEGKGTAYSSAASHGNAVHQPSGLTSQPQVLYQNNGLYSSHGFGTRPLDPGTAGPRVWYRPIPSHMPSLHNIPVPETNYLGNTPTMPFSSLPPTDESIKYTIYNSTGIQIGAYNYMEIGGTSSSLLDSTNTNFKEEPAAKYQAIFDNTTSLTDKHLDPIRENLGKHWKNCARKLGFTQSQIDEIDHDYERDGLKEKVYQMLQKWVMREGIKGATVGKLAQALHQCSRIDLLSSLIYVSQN

Compound	pIC50 [1]	pEC50 [2]
C[C@H](NC(=O)c1cn(C)c2ccc(-c3ccn4nc(NC(=O)N5CCC[C@H]5CO)nc4c3)cc12)c1cccc(F)c1 [Compound 164]	6.00 to 7.00	8.00 to 9.00
Cn1cc(C(=O)N2CCCC2c2cccc(F)c2)c2cc(-c3ccn4nc(NC(=O)C5CC5)cc4n3)ccc21 (centres unmarked) [Compound 185]	8.00 to 9.00	> 9.00
COc1ccc(CNC(=O)c2c[nH]c3ccc(-c4ccc5nc(NC(=O)C6CC6)sc5c4)cc23)cc1OC [Compound 26]	6.00 to 7.00	≤ 6.00
COc1cccc([C@H](C)NC(=O)c2cn(C)c3ccc(-c4ccn5nc(NC(=O)C(C)C)nc5c4)cc23)c1 [Compound 129]	7.00 to 8.00	8.00 to 9.00
CC(C)C(=O)Nc1nc2cc(-c3ccc4c(c3)c(C(=O)N[C@@H](C)c3ccccc3)cn4C)ccn2n1 [Compound 122]	8.00 to 9.00	> 9.00
COCC(=O)Nc1nc2ccc(-c3ccc4c(c3)c(C(=O)N[C@@H](C)c3cccc(F)c3)cn4C)cn2n1 [Compound 96]	7.00 to 8.00	7.00 to 8.00
CCN(CC)CC(=O)Nc1nc2cc(-c3ccc4c(c3)c(C(=O)N3CCC[C@H]3c3ccc(F)cc3)cn4C)ccn2n1 [Compound 209]	8.00 to 9.00	> 9.00
CC(C)C(=O)Nc1nc2cc(-c3ccc4c(c3)c(C(=O)NC(C)c3ccncc3)cn4C)ccn2n1 (centres unmarked) [Compound 139]	7.00 to 8.00	7.00 to 8.00
C[C@H](NC(=O)c1cn(C)c2ccc(-c3ccc4nc(NC(=O)C5CC5)nn4c3)cc12)c1cccc(F)c1 [Compound 155]	7.00 to 8.00	8.00 to 9.00
Cn1cc(C(=O)NCc2ccc(N3CCOCC3)cc2)c2cc(-c3ccn4nc(NC(=O)C5CC5)nc4c3)ccc21 [Compound 98]	≤ 6.00	≤ 6.00
Nc1ncnn2c(-c3ccc4[nH]nc(C(=O)NCCc5cccc(F)c5)c4c3)ccc12 [Compound 102]	6.00 to 7.00	6.00 to 7.00
C[C@H](NC(=O)c1cn(C)c2ccc(-c3ccn4nc(NC(=O)C5CC5(F)F)nc4c3)cc12)c1cccc(F)c1 (stereo partly drawn) [Compound 142, 5-(2-(2,2-difluorocyclopropane-1-carboxamido)-[1,2,4]triazolo[1,5-a]pyridin-7-yl)-N-((S)-1-(3-fluorophenyl)ethyl)-1-methyl-1H-indole-3-Carboxamide]	7.00 to 8.00	> 9.00
Cc1ccc(CCNC(=O)c2n[nH]c3ccc(-c4ccc5c(N)ncnn45)cc23)cc1 [Compound 101]	7.00 to 8.00	6.00 to 7.00
C[C@H](NC(=O)c1cn(C)c2ccc(-c3ccc4nc(NC(=O)C5CC5)cn4n3)cc12)c1cccc(F)c1 [Compound 109]	8.00 to 9.00	> 9.00
CCn1cc(C(=O)N2CCC[C@H]2c2ccc(F)cc2)c2cc(-c3ccn4nc(NC(=O)[C@@H](C)O)nc4c3)ccc21 [Compound 204]	7.00 to 8.00	> 9.00

Second part, led by results:

pIC50 [1]	Compound	pEC50 [2]
≤ 6.00	Cn1cc(CNC(=O)c2c[nH]c3ccc(-c4ccc5nc(NC(=O)C6CC6)sc5c4)cc23)cn1 [Compound 86]	≤ 6.00
6.00 to 7.00	O=C(NCc1cccc([N+](=O)[O-])c1)c1c[nH]c2ccc(-c3ccc4nc(NC(=O)C5CC5)sc4c3)cc12 [Compound 10]	6.00 to 7.00
7.00 to 8.00	C[C@H](NC(=O)c1c[nH]c2ccc(-c3ccc4nc(NC(=O)C5CC5)nn4c3)cc12)c1cccc(F)c1 [Compound 45]	7.00 to 8.00
7.00 to 8.00	O=C(NCc1cccc(F)c1)c1c[nH]c2ccc(-c3ccc4nc(NC(=O)C5CC5)sc4c3)cc12 [Compound 4]	7.00 to 8.00
7.00 to 8.00	N#Cc1ccc(CNC(=O)c2c[nH]c3ccc(-c4ccc5nc(NC(=O)C6CC6)sc5c4)cc23)cc1 [Compound 7]	7.00 to 8.00
7.00 to 8.00	C[C@H](NC(=O)c1c[nH]c2ccc(-c3ccc4nc(NC(=O)C5CCC5)sc4c3)cc12)c1cccc(F)c1 [Compound 47]	8.00 to 9.00
7.00 to 8.00	C[C@H](NC(=O)c1cn(C)c2ccc(-c3ccc4nc(NC(=O)C5CC5)sc4n3)cc12)c1cccc(F)c1 [Compound 89]	8.00 to 9.00
